{
  "source": "patent US6150385A",
  "about": "“1,3,4-thiadiazoles useful for the treatment of CMV infections” (Pharmacia & Upjohn Company, priority 1999, dated 2000)",
  "data": [
    {"biological_target": "T1, HCMV polymerase (Human cytomegalovirus, UniProt P08546)", "T1 construct": "made in house; host or cells: SF-9 insect cells infected with recombinant baculovirus", "T1 sequence (P08546 whole entry)": "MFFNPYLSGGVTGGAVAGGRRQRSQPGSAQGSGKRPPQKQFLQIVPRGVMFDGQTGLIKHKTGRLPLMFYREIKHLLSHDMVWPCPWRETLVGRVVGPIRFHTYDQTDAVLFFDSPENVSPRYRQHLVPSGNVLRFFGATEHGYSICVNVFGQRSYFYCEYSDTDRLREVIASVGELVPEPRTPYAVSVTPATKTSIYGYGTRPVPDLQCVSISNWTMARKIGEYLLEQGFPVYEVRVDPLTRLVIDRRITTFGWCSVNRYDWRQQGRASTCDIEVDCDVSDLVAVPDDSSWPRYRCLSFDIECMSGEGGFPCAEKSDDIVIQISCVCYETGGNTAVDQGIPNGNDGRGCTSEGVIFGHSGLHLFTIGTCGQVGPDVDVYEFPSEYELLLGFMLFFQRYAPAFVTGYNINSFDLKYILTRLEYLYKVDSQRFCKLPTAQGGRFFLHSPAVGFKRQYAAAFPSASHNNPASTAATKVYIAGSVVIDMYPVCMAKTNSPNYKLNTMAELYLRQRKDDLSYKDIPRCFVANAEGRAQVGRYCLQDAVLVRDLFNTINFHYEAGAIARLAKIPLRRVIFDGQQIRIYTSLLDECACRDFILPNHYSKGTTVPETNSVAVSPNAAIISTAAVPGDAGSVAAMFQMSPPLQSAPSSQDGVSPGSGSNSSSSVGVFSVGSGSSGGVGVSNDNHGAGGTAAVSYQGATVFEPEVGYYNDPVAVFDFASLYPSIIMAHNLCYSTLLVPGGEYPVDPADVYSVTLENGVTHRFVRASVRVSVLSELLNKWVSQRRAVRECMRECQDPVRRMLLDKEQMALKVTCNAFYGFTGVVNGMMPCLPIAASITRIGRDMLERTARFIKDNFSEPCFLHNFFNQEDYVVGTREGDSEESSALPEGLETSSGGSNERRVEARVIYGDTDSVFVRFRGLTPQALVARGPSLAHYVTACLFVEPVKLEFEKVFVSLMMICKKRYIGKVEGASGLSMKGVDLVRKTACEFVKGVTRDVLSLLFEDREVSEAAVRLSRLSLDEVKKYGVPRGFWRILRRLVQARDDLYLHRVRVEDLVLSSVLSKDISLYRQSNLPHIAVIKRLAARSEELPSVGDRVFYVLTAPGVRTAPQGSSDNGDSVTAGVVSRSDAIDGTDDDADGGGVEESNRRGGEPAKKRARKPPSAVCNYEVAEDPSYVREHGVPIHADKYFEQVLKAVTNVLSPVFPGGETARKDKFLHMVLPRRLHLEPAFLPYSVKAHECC", "assay": "HCMV polymerase assay (scintillation proximity assay)", "type": "biochemical", "settings": "percentage of inhibition at 25 μM concentration in CMV polymerase assay", "in_short": "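Values are percent inhibition at 25 μM, measured by scintillation proximity after capture of biotinylated poly(dA)-oligo(dT) (6 nM) extended with 90 nM 3H-dTTP. Recombinant SF-9-derived enzyme reacted 30 min at 25 or 37 °C in HEPES pH 7.5/KCl/MgCl2/BSA buffer, ±2 mM CHAPS, before EDTA termination.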", "units": {"inhibition at 25 µM": "%", "% Inhib": "%"}, "values": [
      {"smiles": "CCCCCCCCCCCNc1nnc(NC(=O)c2ccc(C(F)(F)F)cc2)s1", "note": "[compound 239, 4-(trifluoromethyl)-N-[5-(undecylamino)-1,3,4-thiadiazol-2-yl]benzamide]", "inhibition at 25 µM": 41.4},
      {"smiles": "O=C(/C=C/c1ccccc1Cl)Nc1nnc(NCCC(c2ccccc2)c2ccccc2)s1", "note": "[compound 240, (E)-3-(2-chlorophenyl)-N-{5-[(3,3-diphenylpropyl)amino]-1,3,4-thiadiazol-2-yl}-2-propenamide]", "inhibition at 25 µM": 41.3},
      {"smiles": "O=C(Nc1nnc(NCc2ccccn2)s1)c1c(Cl)cccc1Cl", "note": "[compound 241, 2,6-dichloro-N-{5-[(2-pyridinylmethyl)amino]-1,3,4-thiadiazol-2-yl}benzamide]", "inhibition at 25 µM": 41.3},
      {"smiles": "CCOc1ccc2ccccc2c1C(=O)Nc1nnc(NCCCn2ccnc2)s1", "note": "[compound 242, 2-ethoxy-N-(5-{[3-(1H-imidazol-1-yl)propyl]amino}-1,3,4-thiadiazol-2-yl)-1-naphthamide]", "inhibition at 25 µM": 41.3},
      {"smiles": "O=C(Nc1nnc(NCCC(c2ccccc2)c2ccccc2)s1)c1ccc(F)cc1F", "note": "[compound 243, N-{5-[(3,3-diphenylpropyl)amino]-1,3,4-thiadiazol-2-yl}-2,4-difluorobenzamide]", "inhibition at 25 µM": 41.1},
      {"smiles": "COc1ccc(CNc2nnc(NC(=O)c3ccc(C#N)cc3)s2)cc1OC", "note": "[compound 244, 4-cyano-N-{5-[(3,4-dimethoxybenzyl)amino]-1,3,4-thiadiazol-2-yl}benzamide]", "inhibition at 25 µM": 41},
      {"smiles": "O=C(Nc1nnc(NCCCCc2ccccc2)s1)c1ccc(S(=O)(=O)F)cc1", "note": "[compound 245, 4-[({5-[(4-phenylbutyl)amino]-1,3,4-thiadiazol-2-yl}amino)carbonyl]benzenesulfonyl fluoride]", "% Inhib": 41.0},
      {"smiles": "CCCCCCCC/C=C/CCCCCCCC(=O)Nc1nnc(NCC2CCCO2)s1", "note": "(stereo not drawn) [compound 246, (E)-N-{5-[(tetrahydro-2-furanylmethyl)amino]-1,3,4-thiadiazol-2-yl}-9-octadecenamide]", "inhibition at 25 µM": 40.9},
      {"smiles": "O=C(Nc1nnc(NCc2ccco2)s1)c1ccc(Cl)c(Cl)c1", "note": "[compound 247, 3,4-dichloro-N-{5-[(2-furylmethyl)amino]-1,3,4-thiadiazol-2-yl}benzamide]", "inhibition at 25 µM": 40.9},
      {"smiles": "CC(C)c1cc(C(C)C)c(C(=O)Nc2nnc(NCCNc3ccccc3)s2)c(C(C)C)c1", "note": "[compound 248, N-{5-[(2-anilinoethyl)amino]-1,3,4-thiadiazol-2-yl}-2,4,6-triisopropylbenzamide]", "inhibition at 25 µM": 40.8},
      {"smiles": "CCCCCCCC/C=C/CCCCCCCC(=O)Nc1nnc(NCCC#N)s1", "note": "[compound 249, (E)-N-{5-[(2-cyanoethyl)amino]-1,3,4-thiadiazol-2-yl}-9-octadecenamide]", "inhibition at 25 µM": 40.6},
      {"smiles": "CC(C)c1cc(C(C)C)c(C(=O)Nc2nnc(NC3CCCCCC3)s2)c(C(C)C)c1", "note": "[compound 250, N-[5-(cycloheptylamino)-1,3,4-thiadiazol-2-yl]-2,4,6-triisopropylbenzamide]", "inhibition at 25 µM": 40.5},
      {"smiles": "O=C(/C=C/c1ccccc1Cl)Nc1nnc(NCc2ccco2)s1", "note": "[compound 251, (E)-3-(2-chlorophenyl)-N-{5-[(2-furylmethyl)amino]-1,3,4-thiadiazol-2-yl}-2-propenamide]", "inhibition at 25 µM": 40.3},
      {"smiles": "O=C(Nc1nnc(NCCc2c[nH]c3ccccc23)s1)c1ccc(I)cc1", "note": "[compound 252, N-(5-{[2-(1H-indol-3-yl)ethyl]amino}-1,3,4-thiadiazol-2-yl)-4-iodobenzamide]", "inhibition at 25 µM": 40.2},
      {"smiles": "CCCCCCCC/C=C/CCCCCCCC(=O)Nc1nnc(NC2CCN(Cc3ccccc3)CC2)s1", "note": "[compound 253, (E)-N-{5-[(1-benzyl-4-piperidinyl)amino]-1,3,4-thiadiazol-2-yl}-9-octadecenamide]", "inhibition at 25 µM": 40.1},
      {"smiles": "O=C(CCCCCl)Nc1nnc(NCCSc2ccccc2)s1", "note": "[compound 254, 5-chloro-N-(5-{[2-(phenylsulfanyl)ethyl]amino]-1,3,4-thiadiazol-2-yl)pentanamide]", "inhibition at 25 µM": 40},
      {"smiles": "O=C(Nc1nnc(NCCc2c[nH]c3ccccc23)s1)c1c(Cl)cccc1Cl", "note": "[compound 255, 2,6-dichloro-N-(5-{[2-(1H-indol-3-yl)ethyl]amino}-1,3,4-thiadiazol-2-yl)benzamide]", "inhibition at 25 µM": 39.9},
      {"smiles": "O=C(Nc1nnc(NC2CCCCCC2)s1)c1cc2ccccc2s1", "note": "[compound 256, N-[5-(cycloheptylamino)-1,3,4-thiadiazol-2-yl]-1-benzothiophene-2-carboxamide]", "inhibition at 25 µM": 39.8},
      {"smiles": "CCCCCCCCCCCNc1nnc(NC(=O)c2cc3ccccc3s2)s1", "note": "[compound 257, N-[5-(undecylamino)-1,3,4-thiadiazol-2-yl]-1-benzothiophene-2-carboxamide]", "inhibition at 25 µM": 39.8},
      {"smiles": "CC(=O)NCCNc1nnc(NC(=O)c2ccc3c(c2)C(=O)OC3=O)s1", "note": "[compound 258, N-(5-{[2-(acetylamino)ethyl]amino}-1,3,4-thiadiazol-2-yl)-1,3-dioxo-1,3-dihydro-2-benzofuran-5-carboxamide]", "inhibition at 25 µM": 39.7},
      {"smiles": "NS(=O)(=O)c1ccc(CCNc2nnc(NC(=O)c3c(Cl)cccc3Cl)s2)cc1", "note": "[compound 259, N-(5-{[4-(aminosulfonyl)phenethyl]amino}-1,3,4-thiadiazol-2-yl)-2,6-dichlorobenzamide]", "inhibition at 25 µM": 39.6},
      {"smiles": "CC(C)c1cc(C(C)C)c(C(=O)Nc2nnc(NCCCCc3ccccc3)s2)c(C(C)C)c1", "note": "[compound 260, 2,4,6-triisopropyl-N-{5-[(4-phenylbutyl)amino]-1,3,4-thiadiazol-2-yl}benzamide]", "inhibition at 25 µM": 39.6},
      {"smiles": "CCOc1ccc2ccccc2c1C(=O)Nc1nnc(NC[C@@H]2CCC3CC2C3(C)C)s1", "note": "(stereo partly drawn) [compound 261, N-[5-({[(2R)-6,6-dimethylbicyclo[3.1.1]hept-2-yl]methyl}amino)-1,3,4-thiadiazol-2-yl]-2-ethoxy-1-naphthamide]", "inhibition at 25 µM": 39.5},
      {"smiles": "O=C(/C=C/c1ccccc1)Nc1nnc(NCCc2ccccc2)s1", "note": "[compound 262, (E)-N-[5-(phenethylamino)-1,3,4-thiadiazol-2-yl]-3-phenyl-2-propenamide]", "inhibition at 25 µM": 39.5},
      {"smiles": "O=C(Nc1nnc(NCc2ccncc2)s1)c1ccc(Cl)c(Cl)c1", "note": "[compound 263, 3,4-chloro-N-{5-[(4-pyridinylmethyl)amino]-1,3,4-thiadiazol-2-yl}benzamide]", "inhibition at 25 µM": 39.4},
      {"smiles": "O=C(Nc1nnc(NCCNc2ccccc2)s1)c1ccc([N+](=O)[O-])o1", "note": "[compound 264, N-{5-[(2-anilinoethyl)amino]-1,3,4-thiadiazol-2-yl}-5-nitro-2-furamide]", "inhibition at 25 µM": 39.2},
      {"smiles": "CC(C)c1cc(C(C)C)c(C(=O)Nc2nnc(NC3CCN(Cc4ccccc4)CC3)s2)c(C(C)C)c1", "note": "[compound 265, N-{5-[(1-benzyl-4-piperidinyl)amino]-1,3,4-thiadiazol-2-yl}-2,4,6-triisopropylbenzamide]", "inhibition at 25 µM": 39.1},
      {"smiles": "CC(C)c1cc(C(C)C)c(C(=O)Nc2nnc(NCc3ccncc3)s2)c(C(C)C)c1", "note": "[compound 266, 2,4,6-triisopropyl-N-{5-[(4-pyridinylmethyl)amino]-1,3,4-thiadiazol-2-yl}benzamide]", "inhibition at 25 µM": 38.8},
      {"smiles": "NS(=O)(=O)c1ccc(CCNc2nnc(NC(=O)c3cc4ccccc4s3)s2)cc1", "note": "[compound 267, N-(5-{[4-(aminosulfonyl)phenethyl]amino}-1,3,4-thiadiazol-2-yl)-1-benzothiophene-2-carboxamide]", "inhibition at 25 µM": 38.7},
      {"smiles": "O=C(/C=C/c1ccccc1Cl)Nc1nnc(NCCc2c[nH]c3ccccc23)s1", "note": "[compound 268, (E)-3-(2-chlorophenyl)-N-(5-{[2-(1H-indol-3-yl)ethyl]amino}-1,3,4-thiadiazol-2-yl)-2-propenamide]", "inhibition at 25 µM": 38.7},
      {"smiles": "O=C(Nc1nnc(NCCc2c[nH]c3ccccc23)s1)c1cc2ccccc2s1", "note": "[compound 269, N-(5-{[2-(1H-indol-3-yl)ethyl]amino}-1,3,4-thiadiazol-2-yl)-1-benzothiophene-2-carboxamide]", "inhibition at 25 µM": 38.5},
      {"smiles": "CCOc1ccc2ccccc2c1C(=O)Nc1nnc(NCCc2ccccc2)s1", "note": "[compound 270, 2-ethoxy-N-[5-(phenethylamino)-1,3,4-thiadiazol-2-yl]-1-naphthamide]", "inhibition at 25 µM": 38.4},
      {"smiles": "O=C(Nc1nnc(NCCc2c[nH]c3ccccc23)s1)c1cccc([N+](=O)[O-])c1", "note": "[compound 271, N-(5-{[2-(1H-indol-3-yl)ethyl]amino}-1,3,4-thiadiazol-2-yl)-3-nitrobenzamide]", "inhibition at 25 µM": 38.4},
      {"smiles": "O=C(Nc1nnc(NCCCn2ccnc2)s1)c1ccc(Br)cc1", "note": "[compound 272, 4-bromo-N-(5-{[3-(1H-imidazol-1-yl)propyl]amino}-1,3,4-thiadiazol-2-yl)benzamide]", "inhibition at 25 µM": 38.2},
      {"smiles": "O=C(Nc1nnc(NCc2ccc3c(c2)OCO3)s1)c1ccc(Br)cc1", "note": "[compound 273, N-{5-[(1,3-benzodioxol-5-ylmethyl)amino]-1,3,4-thiadiazol-2-yl}-4-bromobenzamide]", "inhibition at 25 µM": 38.1},
      {"smiles": "O=C(/C=C/c1ccccc1)Nc1nnc(NC2CCCCCC2)s1", "note": "[compound 274, (E)-N-[5-(cycloheptylamino)-1,3,4-thiadiazol-2-yl]-3-phenyl-2-propenamide]", "inhibition at 25 µM": 38.1},
      {"smiles": "O=C(Nc1nnc(NCCCNC2CCCCC2)s1)c1cc(F)cc(F)c1", "note": "[compound 275, N-(5-{[3-(cyclohexylamino)propyl]amino]-1,3,4-thiadiazol-2-yl)-3,5-difluorobenzamide]", "inhibition at 25 µM": 37.9},
      {"smiles": "O=C(/C=C/c1ccccc1Cl)Nc1nnc(NC2CCC2)s1", "note": "[compound 276, (E)-3-(2-chlorophenyl)-N-[5-(cyclobutylamino)-1,3,4-thiadiazol-2-yl]-2-propenamide]", "inhibition at 25 µM": 37.9},
      {"smiles": "O=C(Nc1nnc(NCCC(c2ccccc2)c2ccccc2)s1)c1cc2ccccc2s1", "note": "[compound 277, N-{5-[(3,3-diphenylpropyl)amino]-1,3,4-thiadiazol-2-yl}-1-benzothiophene-2-carboxamide]", "inhibition at 25 µM": 37.9}
    ]}
  ]
}
